# Results taken from patent US20260265251A1 (priority 2023, published 2026).
# pIC50: −log10 of the molar value.
# Tests used:
# A2058 cells = test: A2058 cell proliferation assay; type: cell-based; details: Homo sapiens, 96 hours, CellTiter-Glo
# SK-MEL-3 cells = test: SK-MEL-3 cell proliferation assay; type: cell-based; details: Homo sapiens, SK-MEL3; SK-MEL-3 cells, 72 hours, CellTiter-Glo; read-out: SK-MEL-3 IC50
SMILES,pIC50 (A2058 cells),pIC50 (SK-MEL-3 cells)
"O=c1[nH]c2cc3c(nc2[nH]1)CCC(c1cnn(C(F)F)c1Cl)C3 (racemic) [Example 64, 7-(5-chloro-1-(difluoromethyl)-1H-pyrazol-4-yl)-1,3,5,6,7,8-hexahydro-2H-imidazo[4,5-b]quinolin-2-one]",9.40,10.10
"O=c1[nH]c2cc3c(nc2[nH]1)CC[C@H](c1cnn(C(F)F)c1Cl)C3 (single isomer, unassigned) [Example 64-A, (*S)-7-(5-chloro-1-(difluoromethyl)-1H-pyrazol-4-yl)-1,3,5,6,7,8-hexahdro-2H-imidazo[4,5-b]quinolin-2-one]",9.54,10.40
"O=c1[nH]c2cc3c(nc2[nH]1)CC[C@@H](c1cnn(C(F)F)c1Cl)C3 (single isomer, unassigned) [Example 64-B, (*R)-7-(5-chloro-1-(difluoromethyl)-1H-pyrazol-4-yl)-1,3,5,6,7,8-hexahydro-2H-imidazo[4,5-b]quinolin-2-one]",8.75,9.30
"O=c1[nH]c2cc3cc(-c4ccc(F)cc4Cl)ccc3nc2[nH]1 [Example 3, 7-(2-chloro-4-fluorophenyl)-1,3-dihydro-2H-imidazo[4,5-b]quinolin-2-one]",8.92,9.30
"O=c1[nH]c2cc3cc(-c4cnn(C(F)F)c4Cl)ccc3nc2[nH]1 [Example 13, 7-(5-chloro-1-(difluoromethyl)-1H-pyrazol-4-yl)-1,3-dihydro-2H-imidazo[4,5-b]quinolin-2-one]",10.00,10.52
"N#Cc1ccc(-c2ccc3nc4[nH]c(=O)[nH]c4cc3c2)c(Cl)c1 [Example 14, 7-(2-chloro-4-cyanophenyl)-1,3-dihydro-2H-imidazo[4,5-b]quinolin-2-one]",8.96,9.52
"O=c1[nH]c2cc3cc(-c4nn(C(F)F)cc4Cl)ccc3nc2[nH]1 [Example 15, 7-(4-chloro-1-(difluoromethyl)-1H-pyrazol-3-yl)-1,3-dihydro-2H-imidazo[4,5-b]quinolin-2-one]",8.41,9.15
"O=c1[nH]c2cc3cc(-c4ccc(C(F)(F)F)nc4Cl)ccc3nc2[nH]1 [Example 17, 7-(2-chloro-6-(trifluoromethyl)pyridin-3-yl)-1,3-dihydro-2H-imidazo[4,5-b]quinolin-2-one]",7.96,8.96
"O=c1[nH]c2cc3c(nc2[nH]1)CCN(c1ccc(F)cc1Cl)C3 [Example 21, 7-(2-chloro-4-fluorophenyl)-1,3,5,6,7,8-hexahydro-2H-imidazo[4,5-b][1,6]naphthyridin-2-one]",7.42,8.35
"N#Cc1ccc(N2CCc3nc4[nH]c(=O)[nH]c4cc3C2)c(Cl)c1 [Example 22, 7-(2-chloro-4-cyanophenyl)-1,3,5,6,7,8-hexahydro-2H-imidazo[4,5-b][1,6]naphthyridin-2-one]",7.92,8.80
"O=c1[nH]c2cc3c(nc2[nH]1)CCN(c1ncc(F)cc1Cl)C3 [Example 23, 7-(3-chloro-5-fluoropyridin-2-yl)-1,3,6,7,8-hexahydro-2H-imidazo[4,5-b][1,6]naphthyridin-2-one]",7.35,8.36
"O=c1[nH]c2cc3c(Cl)c(-c4ccc(F)cn4)ccc3nc2[nH]1 [Example 24, 8-chloro-7-(5-fluoropyridin-2-yl)-1,3-dihydro-2H-imidazo[4,5-b]quinolin-2-one]",8.57,9.05
"[2H]C([2H])([2H])Oc1ccc(-c2ccc3nc4[nH]c(=O)[nH]c4cc3c2)c(Cl)n1 [Example 27, 7-(2-chloro-6-(methoxy-d3)pyridin-3-yl)-1,3-dihydro-2H-imidazo[4,5-b]quinolin-2-one]",7.69,8.51
"[2H]C([2H])([2H])Oc1nc(Cl)ccc1-c1ccc2nc3[nH]c(=O)[nH]c3cc2c1 [Example 28, 7-(6-chloro-2-(methoxy-d3)pyridin-3-yl)-1,3-dihydro-2H-imidazo[4,5-b]quinolin-2-one]",8.10,8.96
"O=c1[nH]c2cc3cc(-c4cnn(C(F)F)c4C(F)(F)F)ccc3nc2[nH]1 [Example 30, 7-(1-(difluoromethyl)-5-(trifluoromethyl)-1H-pyrazol-4-yl)-1,3-dihydro-2H-imidazo[4,5-b]quinolin-2-one]",9.05,10.00
"O=c1[nH]c2cc3cc(-c4cnn(C(F)F)c4Br)ccc3nc2[nH]1 [Example 32, 7-(5-bromo-1-(difluoromethyl)-1H-pyrazol-4-yl)-1,3-dihydro-2H-imidazo[4,5-b]quinolin-2-one]",9.52,10.30
"O=c1[nH]c2cc3cc(-c4onc(C(F)F)c4Cl)ccc3nc2[nH]1 [Example 34, 7-(4-chloro-3-(difluoromethyl)isoxazol-5-yl)-1,3-dihydro-2H-imidazo[4,5-b]quinolin-2-one]",9.72,10.05
"O=c1[nH]c2cc3cc(-c4ccc(C(F)F)nc4Cl)ccc3nc2[nH]1 [Example 35, 7-(2-chloro-6-(difluoromethyl)pyridin-3-yl)-1,3-dihydro-2H-imidazo[4,5-b]quinolin-2-one]",8.28,9.22

SMILES,pIC50 (A2058 cells),pIC50 (SK-MEL-3 cells)
"O=c1[nH]c2cc3cc(-c4ccc(C(F)F)cc4Cl)ccc3nc2[nH]1 [Example 36, 7-(2-chloro-4-(difluoromethyl)phenyl)-1,3-dihydro-2H-imidazo[4,5-b]quinolin-2-one]",8.28,9.05
"CNc1nc(Cl)ccc1-c1ccc2nc3[nH]c(=O)[nH]c3cc2c1 [Example 41, 7-(6-chloro-2-(methylamino)pyridin-3-yl)-1,3-dihydro-2H-imidazo[4,5-b]quinolin-2-one]",7.21,
"O=c1[nH]c2cc3cc(-c4cnn(C(F)F)c4OC(F)F)ccc3nc2[nH]1 [Example 42, 7-(5-(difluoromethoxy)-1-(difluoromethyl)-1H-pyrazol-4-yl)-1,3-dihydro-2H-imidazo[4,5-b]quinolin-2-one]",9.40,
"Cc1c(-c2ccc3nc4[nH]c(=O)[nH]c4cc3c2)cnn1C(F)F [Example 44, 7-(1-(difluoromethyl)-5-methyl-1H-pyrazol-4-yl)-1,3-dihydro-2H-imidazo[4,5-b]quinolin-2-one]",9.77,10.15
"[2H]C([2H])([2H])c1c(-c2ccc3nc4[nH]c(=O)[nH]c4cc3c2)cnn1C(F)F [Example 45, 7-(1-(difluoromethyl)-5-(methyl-d3)-1H-pyrazol-4-yl)-1,3-dihydro-2H-imidazo[4,5-b]quinolin-2-one]",9.72,
"O=c1[nH]c2cc3c(nc2[nH]1)CCN(c1ccc(C(F)(F)F)nc1Cl)C3 [Example 48, 7-(2-chloro-6-(trifluoromethyl)pyridin-3-yl)-1,3,5,6,7,8-hexahydro-2H-imidazo[4,5-b][1,6]naphthyridin-2-one]",7.13,8.28
"O=c1[nH]c2cc3c(nc2[nH]1)CCN(c1cnn(C(F)F)c1Cl)C3 [Example 50, 7-(5-chloro-1-(difluoromethyl)-1H-pyrazol-4-yl)-1,3,5,6,7,8-hexahydro-2H-imidazo[4,5-b][1,6]naphthyridin-2-one]",8.12,8.92
"O=c1[nH]c2cc3c(nc2[nH]1)CCC(c1ccc(F)cc1)C3 (centres unmarked) [Example 57, 7-(4-fluorophenyl)-1,3,5,6,7,8-hexahydro-2H-imidazo[4,5-b]quinolin-2-one]",7.49,
"O=c1[nH]c2cc3c(nc2[nH]1)CCN(c1cccc(C(F)(F)F)n1)C3 [Example 58, 7-(6-(trifluoromethyl)pyridin-2-yl)-1,3,5,6,7,8-hexahydro-2H-imidazo[4,5-b][1,6]naphthyridin-2-one]",8.92,9.52
"O=c1[nH]c2cc3c(nc2[nH]1)CCN(c1nc(C(F)(F)F)ccc1F)C3 [Example 60, 7-(3-fluoro-6-(trifluoromethyl)pyridin-2-yl)-1,3,5,6,7,8-hexahydro-2H-imidazo[4,5-b][1,6]naphthyridin-2-one]",8.77,
"O=c1[nH]c2cc3c(nc2[nH]1)CCN(c1ccc(F)c(C(F)(F)F)n1)C3 [Example 61, 7-(5-fluoro-6-(trifluoromethyl)pyridin-2-yl)-1,3,5,6,7,8-hexahydro-2H-imidazo[4,5-b][1,6]naphthyridin-2-one]",8.72,
"O=c1[nH]c2cc3c(nc2[nH]1)CCN(c1ccc(Cl)nc1C(F)(F)F)C3 [Example 62, 7-(6-chloro-2-(trifluoromethyl)pyridin-3-yl)-1,3,5,6,7,8-hexahydro-2H-imidazo[4,5-b][1,6]naphthyridin-2-one]",7.50,
"O=c1[nH]c2cc3c(nc2[nH]1)CCC(c1cn(C(F)F)nc1Cl)C3 (centres unmarked) [Example 63, 7-(3-chloro-1-(difluoromethyl)-1H-pyrazol-4-yl)-1,3,5,6,7,8-hexahydro-2H-imidazo[4,5-b]quinolin-2-one]",8.09,
"O=c1[nH]c2cc3c(Cl)c(-c4cnn(C(F)F)c4Cl)ccc3nc2[nH]1 [Example 86, 8-chloro-7-(5-chloro-1-(difluoromethyl)-1H-pyrazol-4-yl)-1,3-dihydro-2H-imidazo[4,5-b]quinolin-2-one]",9.05,10.05
"O=c1[nH]c2cc3c(Cl)c(-c4cn(C(F)F)nc4Cl)ccc3nc2[nH]1 [Example 87, 8-chloro-7-(3-chloro-1-(difluoromethyl)-1H-pyrazol-4-yl)-1,3-dihydro-2H-imidazo[4,5-b]quinolin-2-one]",8.70,
"O=c1[nH]c2cc3cc(-c4cnn(C(F)F)c4Cl)c(Cl)cc3nc2[nH]1 [Example 88, 6-chloro-7-(5-chloro-1-(difluoromethyl)-1H-pyrazol-4-yl)-1,3-dihydro-2H-imidazo[4,5-b]quinolin-2-one]",8.04,
"O=c1[nH]c2cc3cc(-c4cn(C(F)F)nc4Cl)c(Cl)cc3nc2[nH]1 [Example 89, 6-chloro-7-(3-chloro-1-(difluoromethyl)-1H-pyrazol-4-yl)-1,3-dihydro-2H-imidazo[4,5-b]quinolin-2-one]",7.73,
